PubChem BioAssay (NCI)
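96-well plates; 48 h exposure; 5 concentrations. Endpoints by linear interpolation between flanking doses. Not reached: highest tested concentration assigned. Here, GI50 denotes the concentration required for 50% inhibition of growth. The concentration for full growth arrest is given as TGI.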 *1 amine or outer side, *2 acyl side, *3 side chain or, on linkers, in order; H or OH if unused. Where a SMILES comes first, the peptide text is derived from it. Bridges are numbered along the chain shown (N, C = ends). [ ]: non-standard residue; d: D form. The star is where a group is joined. X19 = O=C([C@H](N[*:1])c1ccc(O[C@H]2O[C@@H](CO)[C@@H](O)[C@@H](O)[C@H]2O[C@@H]2O[C@H](CO)[C@H](O)[C@H](O)[C@@H]2O)cc1)[*:2]; X18 = NC(=O)[C@@H](O[*:3])[C@H](N[*:1])C(=O)[*:2]; X20 = O=C([C@H](N[*:1])c1ccc(O)c(Cl)c1)[*:2]; d(aThr) = C[C@@H](O)[C@@H](N)C(=O)O; dHpg = N[C@@H](C(=O)O)c1ccc(O)cc1; X17 = CC(C)C/C=C/C=C/C(=O)*; dOrn = NCCC[C@@H](N)C(=O)O

Legend:
Experiment in all cases: inhibition of tumour cell growth, NCI panel, 48 h
MOLT-4 leukemia = tested on: MOLT-4 leukemia
OVCAR-4 ovarian = tested on: OVCAR-4 ovarian
CCRF-CEM leukemia = tested on: CCRF-CEM leukemia
OVCAR-3 ovarian = tested on: OVCAR-3 ovarian
UO-31 renal = tested on: UO-31 renal
CAKI-1 renal = tested on: CAKI-1 renal
KM12 colon = tested on: KM12 colon
COLO 205 colon = tested on: COLO 205 colon
HOP-62 NSCLC = tested on: HOP-62 NSCLC
SR leukemia = tested on: SR leukemia

SMILES	TGI (MOLT-4 leukemia)	TGI (OVCAR-4 ovarian)	TGI (CCRF-CEM leukemia)	TGI (OVCAR-3 ovarian)	TGI (UO-31 renal)	TGI (CAKI-1 renal)	TGI (KM12 colon)	TGI (COLO 205 colon)	TGI (HOP-62 NSCLC)	GI50 (MOLT-4 leukemia)	GI50 (CCRF-CEM leukemia)	GI50 (OVCAR-3 ovarian)	GI50 (UO-31 renal)	GI50 (CAKI-1 renal)	GI50 (KM12 colon)	GI50 (COLO 205 colon)	GI50 (HOP-62 NSCLC)	GI50 (SR leukemia)	TGI (SR leukemia)	GI50 (OVCAR-4 ovarian)
CCCC1C(=O)C(CC)Cc2c(OC)ccc(OC)c21 (configuration not stated)	> 100 µM	> 100 µM	> 100 µM	> 100 µM	> 100 µM	> 100 µM	> 100 µM	> 100 µM	> 100 µM	–	–	–	–	–	–	–	–	–	–	–
CCN(CC)C(=O)CNC(=O)OC(C)(C)C	> 100 µM	> 100 µM	> 100 µM	> 100 µM	> 100 µM	> 100 µM	> 100 µM	–	> 100 µM	–	–	–	–	–	–	–	–	–	–	–
CN(C)Cc1cccc(CN(C)C)[c]1[Sn]([Br])([c]1ccccc1)[c]1ccccc1	20.5 µM	–	> 100 µM	24.3 µM	26.8 µM	47.1 µM	28.1 µM	17.9 µM	39.5 µM	5.02 µM	5.45 µM	11.3 µM	13.1 µM	21.3 µM	11 µM	4.37 µM	17.2 µM	2.36 µM	12 µM	–
O=C(Nc1ccc(Cl)cc1)c1cc2cc(F)ccc2cc1O	16.4 µM	8.99 µM	15.6 µM	> 100 µM	> 100 µM	8.96 µM	> 100 µM	6.4 µM	7.56 µM	3.24 µM	3.35 µM	1.09 µM	1.08 µM	0.838 µM	2.74 µM	2.35 µM	2.01 µM	–	–	2.56 µM
N#Cc1nn(C2OC(COC(=O)c3ccccc3)C(OC(=O)c3ccccc3)C2OC(=O)c2ccccc2)c2nc[nH]c(=O)c12 (configuration not stated)	95.4 µM	> 100 µM	84.7 µM	> 100 µM	> 100 µM	> 100 µM	–	> 100 µM	> 100 µM	–	–	–	–	–	–	–	–	–	94.4 µM	–
CC(=O)O[C@H]1CCC2[C@@H]3CCC4Nc5c(cnn5-c5ccccc5)C[C@]4(C)C3CC[C@@]21C (some centres not stated)	33.7 µM	71.3 µM	39.5 µM	46.2 µM	22.9 µM	20.7 µM	37.8 µM	28.9 µM	95.7 µM	–	–	–	–	–	–	–	–	–	–	–
c1ccc2c(c1)nnn2CNc1ccc(N2CCOCC2)cc1	> 100 µM	> 100 µM	> 100 µM	> 100 µM	> 100 µM	–	> 100 µM	> 100 µM	> 100 µM	–	–	–	–	–	–	–	–	–	> 100 µM	–
O=C(N/C(=C\c1ccc([N+](=O)[O-])cc1)c1nc2ccc(Cl)cc2[nH]1)c1ccccc1	54 µM	60.8 µM	95.1 µM	52 µM	33.5 µM	59.6 µM	61.4 µM	–	–	–	–	–	–	–	–	–	–	–	63.3 µM	–
COc1cc([C@@H]2c3cc4c(cc3[C@H](OC(C)=O)[C@H]3COC(=O)[C@H]23)OCO4)cc(OC)c1OC	> 100 µM	> 100 µM	> 100 µM	> 100 µM	> 100 µM	–	> 100 µM	0.0785 µM	> 100 µM	0.0385 µM	0.0337 µM	0.034 µM	0.0808 µM	–	0.0306 µM	0.0288 µM	0.0483 µM	0.0225 µM	> 100 µM	0.0826 µM
CC(C)C/C=C/C=C/C(=O)N[C@@H](CC(N)=O)C(=O)N[C@@H]1C(=O)N[C@H](c2ccc(O)cc2)C(=O)N[C@H](CCCN)C(=O)N[C@H]([C@@H](C)O)C(=O)N[C@H](c2ccc(O)cc2)C(=O)N[C@H](c2ccc(O)cc2)C(=O)N[C@H]([C@H](C)O)C(=O)N[C@H](Cc2ccccc2)C(=O)N[C@H](CCCN)C(=O)N[C@H](c2ccc(O[C@H]3O[C@@H](CO)[C@@H](O)[C@@H](O)[C@H]3O[C@@H]3O[C@H](CO)[C@H](O)[C@H](O)[C@@H]3O)cc2)C(=O)N[C@H]([C@H](C)O)C(=O)N[C@H](c2ccc(O)cc2)C(=O)NCC(=O)N[C@H](CC(C)C)C(=O)N[C@H](C)C(=O)N[C@H](c2ccc(O)c(Cl)c2)C(=O)O[C@@H]1C(N)=O (X17-N[X18][dHpg][dOrn][d(aThr)][dHpg][dHpg][dT][dF][dOrn][X19][dT][dHpg]G[dL][dA][X20]; ester 2-C)	> 100 µM	> 100 µM	–	> 100 µM	> 100 µM	> 100 µM	> 100 µM	> 100 µM	78.2 µM	31.7 µM	–	46.5 µM	> 100 µM	> 100 µM	27.8 µM	37.8 µM	29.9 µM	> 100 µM	> 100 µM	39.2 µM
C/C=C1\C(=O)O[C@@H]2C1C[C@@H]1O[C@H]2[C@H](C)CCC/C(C)=C/CC[C@@]1(C)O (some centres not stated)	> 100 µM	–	11.8 µM	11.9 µM	10.4 µM	15.4 µM	31.7 µM	41.8 µM	–	4.59 µM	3.53 µM	1.48 µM	3.02 µM	3.47 µM	13.9 µM	8.16 µM	–	2.41 µM	> 100 µM	–
CC1(C)CCC2(C(=O)O)CC[C@]3(C)C(=CCC4C5(C)CC[C@H](OC6OC(C(=O)O)C(O)C(OC7OC(CO)C(O)C(O)C7O)C6OC6OC(CO)C(O)C(O)C6O)C(C)(C)C5CCC43C)C2C1 (some centres not stated)	> 100 µM	–	> 100 µM	> 100 µM	> 100 µM	> 100 µM	> 100 µM	> 100 µM	> 100 µM	86.3 µM	> 100 µM	> 100 µM	63.5 µM	> 100 µM	> 100 µM	> 100 µM	> 100 µM	15.6 µM	> 100 µM	–
CCN(CC)CCOC(=O)/C(=C/c1ccc(OC)cc1)c1cc(OC)c(OC)c(OC)c1	> 100 µM	> 100 µM	> 100 µM	64.3 µM	31.9 µM	38 µM	16 µM	18.9 µM	31.7 µM	–	–	–	–	–	–	–	–	–	–	–
C[C@@H](NC1CCC[C@@H]1O)c1ccccc1 (some centres not stated)	> 100 µM	> 100 µM	> 100 µM	> 100 µM	> 100 µM	> 100 µM	> 100 µM	> 100 µM	> 100 µM	–	–	–	–	–	–	–	–	–	–	–
NCCCn1c2c(c3cc4c(cc3c1=O)OCO4)C(=O)c1ccccc1-2	0.0742 µM	0.721 µM	0.379 µM	1.27 µM	–	2.22 µM	2.13 µM	> 100 µM	0.729 µM	0.0223 µM	0.0279 µM	0.564 µM	–	0.688 µM	0.757 µM	3.61 µM	0.187 µM	–	–	0.199 µM
